Laboratory results: patent US20020197294A1, “PYRONE COMPOUNDS AND THERE USE” (SUMITOMO CHEMICAL COMPANY, LIMITED, priority 2001, published 2002)

Key:
Format in all cases: in vivo
[1] = system: houseflies (Musca domestics); test: Housefly topical application test (Test Example 3); details: 0.5 μl of 30 g/l acetone solution at back thoracic region (about 15 μg/one housefly), female houseflies, after 24 hours, three replicate
Method: A solution (30 g/l) for each of the present compound (A) and the reference compound was prepared by diluting with acetone.
The acetone solution (0.5 μl) was applied to 10 female houseflies (Musca domestics) at the back thoracic region (active ingredient: about 15 μg/one housefly) by a microsyringe and the houseflies were left with water and feed in a plastic cup. After 24 hours, the mortality (%) was examined (three replicate).

[2] = system: houseflies (Musca domestics); test: Housefly filter paper test (Test Example 2); details: 0.7 ml of 500 ppm aqueous dilution on filter paper, female houseflies, after one day
Method: Filter paper of 5.5 cm in diameter was laid in the bottom of a polyethylene cup (diameter: 5.5 cm). After 0.7 ml of a 500 ppm aqueous dilution obtained by diluting the formulation of the test compound prepared according to the formulation example 1 was dropped on the filter paper, 30 mg of sucrose was scattered. Ten female houseflies (Musca domestics) were left in the cup with a cover. After one day, the mortality of the houseflies was examined.

[3] = system: German cockroaches (Blattella germanica); test: German cockroach filter paper test (Test Example 1); details: 144 h, 0.7 ml of 500 ppm aqueous dilution on filter paper, male German cockroaches, after six days
Method: Filter paper of 5.5 cm in diameter was laid in the bottom of a polyethylene cup (diameter: 5.5 cm). After 0.7 ml of a 500 ppm aqueous dilution obtained by diluting the formulation of the test compound prepared according to the formulation example 1 was dropped on the filter paper, 30 mg of sucrose was scattered. Two male German cockroaches (Blattella germanica) were left in the polyethylene cup with a cover. After six days, the mortality of the German cockroaches was examined.

| Structure (SMILES) | Mortality (%) [1] [%] | mortality of the houseflies [2] [%] | mortality at 500 ppm [3] [%] |
| --- | --- | --- | --- |
| CCCC(=O)c1c(O)cc(C)oc1=O [The Reference compound, reference compound] | 3.3 |  |  |
| Cc1cc(O)c(C(=O)CCC(F)(F)F)c(=O)o1 [the present compound (A), 4-hydroxy-6-methyl-3-(4,4,4-trifluorobutyryl)-2-pyrone] | 100 | 100 | 100 |
| Cc1cc(O)c(C(=O)CC(C)C(F)(F)F)c(=O)o1 (centres unmarked) [the present compound (B), 4-hydroxy-6-methyl-3-(3-trifluoromethylbutyryl)-2-pyrone] |  | 100 | 100 |
| Cc1cc(O)c(C(=O)CC(C(F)(F)F)C(F)(F)F)c(=O)o1 [the present compound (C), 4-hydroxy-6-methyl-3-(3-trifluoromethyl-4,4,4-trifluorobutyryl) -2-pyrone] |  | 100 | 100 |
